Results as given in patent publication US20150204851A1, “METHODS FOR IDENTIFYING DIABETES DRUGS” (Metanomics Health GmbH, priority 2012, published 2015).
Where a name gives a salt, the structure may show the parent alone.

How the values were obtained:
[1] = Mehta 2009; cited from earlier work
glyoxylate [2] = details: cultured human cells; Berman 2005; cited from earlier work
glyoxylate [3] = assay: Glyoxylate level in C. elegans after treatment, GC-MS; type: in vivo, Caenorhabditis elegans; details: for Effect on native/endogenous glyoxylate levels in C. elegans: single treatment: 50 mM metformin or 20 mM glyoxylate; for Ratio of glyoxylate concentrations in C. elegans, treatment/control: wild type on growth medium, 20 mM glyoxylate and/or 50 mM metformin, normalized to median of control
Protocol: Nematodes were harvested and extensively washed with buffer and the resulting pellet was disrupted using glass beats in combination with mechanical force. Samples were extracted with methyl-tert-butylether, methanol and extraction buffer and sonicated for 15 minutes. 50% of a mixture of water/methanol (3:1) was added, vigorously mixed and centrifuged. The polar phase was evaporated to dryness. After addition of water and a mixture of ethanol and dichlormethan, the sample was fractioned into an aqueous, polar phase and an organic, lipophilic phase. 13C-glyoxylate was added as internal standard and the extracts were derivatized in the following way: The methoximation of the carbonyl groups was carried out by reaction with methoxyamine hydrochloride (20 mg/mL in pyridine, 50 μL for 1.5 hours at 60° C.) in a tightly sealed vessel. Finally, the derivatization with 50 μL of N-methyl-N-(trimethylsilyl)-2,2,2-trifluoroacetamide (MSTFA) was carried out for 30 minutes at 60° C., again in the tightly sealed vessel. The final volume before injection into the GC was 100 μL. The GC-MS systems consist of an Agilent 6890 GC coupled to an Agilent 5973 MSD. Autosamplers were CompiPal or GCPaI from CTC.
For the analysis a usual commercial capillary separation column (30 m×0.25 mm×0.5 μm) with an arylene/poly-methyl-siloxane stationary phases was used (for example: DB-XLB, Agilent Technologies). 0.5 μL of the final volume was injected splitless and the oven temperature program was started at 70° C. and ended at 320° C. with different heating rates starting with low rates in order to achieve a sufficient chromatographic separation and number of scans for glyoxylate analysis and changing to a high heating rate after glyoxylate elution. Furthermore usual GC-MS standard conditions, for example constant flow with nominal 1 to 1.7 mL/min. and helium as the mobile phase gas and standard tune conditions were applied. Ionization was done by electron impact with 70 eV, scanning 2 characteristic mass fragments of the glyoxylate derivate and its internal standard, respectively within an appropriate time window. Scan rate was 25 scans/sec. Glyoxylate values were normalized to Total Ion Count of each sample to adjust individual deviation of sample volume. Furthermore, the data were normalized to the median of the control samples leading to ratios to control.
We tested the hypothesis that metformin suppresses glyoxylate concentration in in vivo experiments with the model worm Caenorhabditis elegans, by means of its treatment with glyoxylate and metformin separately and in combination of glyoxylate plus metformin.
The experiment included four treatment groups:
1) C. elegans, wild type (wt)—on growth medium (no treatment, control).
2) C. elegans, wt—on growth medium plus 50 mM metformin (methodology for Metformin application and doses as described in Onken & Driscoll (Onken B, Driscoll M (2010) Metformin induces a dietary restriction-like state and the oxidative stress response to extend C. elegans healthspan via AMPK, LKB1, and SKN-1. PLoS ONE 5(1): e8758.).
3) C. elegans, wt—on growth medium plus 20 mM glyoxylate.
4) C. elegans, wt—on growth medium plus 20 mM glyoxylate and 50 mM metformin.
From the GC-MS metabolite profiles, total ion count (TIC) as a measure of the absolute intensity value was calculated for each batch. Measured glyoxylate levels were then volume-normalized, using TICs.

glyoxylate [4] = assay: Plasma glyoxylate in rats dosed 28 days by gavage, GC-MS metabolite profiling; type: in vivo, rat; details: for Ratio treatment/control, plasma glyoxylate: gavage once daily
Protocol: Two groups of each 5 male and female rats was dosed once daily with the indicated compounds with a different dose per group (see below) over 28 days.
Each dose group in the studies consisted of five rats per sex. Additional groups of each 15 male and 15 female animals served as controls. Before starting the treatment period, animals, which were 62-64 days old when supplied, were acclimatized to the housing and environmental conditions for 7 days. All animals of the animal population were kept under the same constant temerature (20-24±3° C.) and the same constant humidity (30-70%). The animals of the animal population were fed ad libitum. The food to be used was essentially free of chemical or microbial contaminants. Drinking water was also offered ad libitum. Accordingly, the water was free of chemical and microbial contaminants as laid down in the European Drinking Water Directive 98/83/EG. The illumination period was 12 hours light followed by 12 hours darkness (12 hours light, from 6:00 to 18:00, and 12 hours darkness, from 18:00 to 6:00). The studies were performed in an AAALAC-approved laboratory in accordance with the German Animal Welfare Act and the European Council Directive 86/609/EE. The test system was arranged according to the OECD 407 guideline for the testing of chemicals for repeated dose 28-day oral toxicity study in rodents. The test substance was dosed and administered as follows:
Metformin hydrochloride was administered by gavage (high dose group at 1 g/kg body weight, low dose group at 0.2 g/kg body weight), in drinking water containing 0.5% Carboxymethyl cellulose (Tylose CB30000) (administration volume: 10 ml/kg body weight).
In the morning of day 7, 14, and 28, blood was taken from the retroorbital venous plexus from fasted anaesthetized animals. From each animal, 1 ml of blood was collected with EDTA as anticoagulant. The samples were centrifuged for generation of plasma. All plasma samples were covered with a N2 atmosphere and then stored at −80° C. until analysis.
For mass spectrometry-based metabolite profiling analyses plasma samples were extracted and a polar and a non-polar (lipid) fraction was obtained. For GC-MS analysis, the non-polar fraction was treated with methanol under acidic conditions to yield the fatty acid methyl esters. Both fractions were further derivatized with O-methyl-hydroxyamine hydrochloride and pyridine to convert Oxo-groups to O-methyloximes and subsequently with a silylating agent before analysis.
Following comprehensive analytical validation steps, the data for each analyte were normalized against data from pool samples. These samples were run in parallel through the whole process to account for process variability. The significance of treatment group values specific for sex, treatment duration and metabolite was determined by comparing means of the treated groups to the means of the respective untreated control groups using WELCH-test and quantified with treatment ratios versus control and p-values.

C. elegans = details: in vivo; cited from earlier work

For `N=C(N)NN` [Aminoguanidine, aminoguanidine], the “Order of effectiveness for glyoxal trapping, amine-containing drugs” value [1] is given as “aminoguanidine>>pyridoxamine>metformin” and the “Scavenging of glyoxylate, diverting it from oxalate synthesis” value (glyoxylate [2]) is given as “demonstrated to scavenge glyoxylate”.

With `O=CC(=O)O` [Glyoxylate, glyoxylate] the “Effect on native/endogenous glyoxylate levels in C. elegans” value (glyoxylate [3]) was “significant increase of endogenous glyoxylate” and the “Ratio of glyoxylate concentrations in C. elegans, treatment/control” value (glyoxylate [3]) was 1.81.

With `CN(C)C(=N)N=C(N)N` [Metformin hydrochloride] the “Ratio treatment/control, plasma glyoxylate” value (“Ratio treatment/control” below) (glyoxylate [4]; High Dose 1 g/kg body weight, female rats, day 7 (f7)) was 0.82, the “Ratio treatment/control” value (glyoxylate [4]; High Dose 1 g/kg body weight, female rats, day 14 (f14)) was 0.58 and the “Ratio treatment/control” value (glyoxylate [4]; High Dose 1 g/kg body weight, female rats, day 28 (f28)) was 0.52. The “Ratio treatment/control” value (glyoxylate [4]; High Dose 1 g/kg body weight, male rats, day 7 (m7)) was 0.22, the “Ratio treatment/control” value (glyoxylate [4]; High Dose 1 g/kg body weight, male rats, day 14 (m14)) was 0.29 and the “Ratio treatment/control” value (glyoxylate [4]; High Dose 1 g/kg body weight, male rats, day 28 (m28)) was 0.58. For the same compound, the “Ratio treatment/control” value (glyoxylate [4]; Low Dose 0.2 g/kg body weight, female rats, day 7 (f7)) was 1.01, the “Ratio treatment/control” value (glyoxylate [4]; Low Dose 0.2 g/kg body weight, female rats, day 14 (f14)) was 0.72 and the “Ratio treatment/control” value (glyoxylate [4]; Low Dose 0.2 g/kg body weight, female rats, day 28 (f28)) was 0.64. The “Ratio treatment/control” value (glyoxylate [4]; Low Dose 0.2 g/kg body weight, male rats, day 7 (m7)) was 0.59, the “Ratio treatment/control” value (glyoxylate [4]; Low Dose 0.2 g/kg body weight, male rats, day 14 (m14)) was 0.65 and the “Ratio treatment/control” value (glyoxylate [4]; Low Dose 0.2 g/kg body weight, male rats, day 28 (m28)) was 0.44.

For `CN(C)C(=N)N=C(N)N` [Metformin, metformin], the “Effect on lifespan in C. elegans” value (C. elegans) is listed as “promote lifespan in C. elegans”, the “Effect on glyoxylate concentrations in a rat model system” value (glyoxylate [4]; summary of Table 2) is listed as “strongly reducing glyoxylate concentrations” and the “Order of effectiveness for glyoxal trapping, amine-containing drugs” value [1] is listed as “aminoguanidine>>pyridoxamine>metformin”. For the same compound, the “Effect on glyoxylate-induced increase of endogenous glyoxylate in C. elegans” value (glyoxylate [3]; 50 mM metformin simultaneously to treatment with 20 mM glyoxylate) was “restored the native glyoxylate level”, the “Effect on native/endogenous glyoxylate levels in C. elegans” value (glyoxylate [3]) was “significantly decreased native glyoxylate levels” and the “Ratio of glyoxylate concentrations in C. elegans, treatment/control” value (glyoxylate [3]) was 0.88.

For `CC(=O)N[C@@H](CS)C(=O)O` [N-acetyl-cysteine], the “Order of effectiveness for glyoxal trapping, thiol-containing drugs” value (“Order … thiol-containing drugs” for short) [1] is listed as “penicillamine>cysteine>N-acetyl-cysteine”.

In the case of `N[C@@H](CS)C(=O)O` [cysteine], the “Order … thiol-containing drugs” value [1] is given as “penicillamine>cysteine>N-acetyl-cysteine”.

In the case of `CC(C)(S)[C@@H](N)C(=O)O` [penicillamine], the “Order … thiol-containing drugs” value [1] is listed as “penicillamine>cysteine>N-acetyl-cysteine”.
